# “Also recorded” adds a separate entry of the source.
# Tests used:
# MuRF1 E3 ligase activity = MuRF1 E3 ligase activity (Homo sapiens, UniProt Q969Q1); test: Inhibition of MuRF1 E3 ligase activity (ubiquitination, Western blot); assay type: biochemical; settings: 20-100 μmol/L compound, 1 h at 37° C., based on ubiquitination patterns
# Experimental: Compounds were then assessed for effects on MuRF1 E3 ligase activity directed to titin or to MuRF1 itself (self-ubiquitination) by mixing 75 nmol/L UBE1 (Boston Biochem), 1 μmol/L UbcH5c (Boston Biochem), 100 μmol/L Ubiquitin, 4 mmol/L ATP, 100 nmol/L Titin A168-170 with 20-100 μmol/L of respective compounds. Reactions were started by addition of 220 nmol/L MuRF1, followed by 1 h at 37° C., SDS PAGE and Western blot analysis with MuRF1 and titin specific antibodies. All reactions also included 5% DMSO.
# MuRF1 central fragment = test: Differential scanning fluorimetry (DSF) of MuRF1 central fragment; assay type: binding; settings: 100 μM compound, 1% DMSO in PBS, 75 μM protein; 65.8° C. with 1% DMSO alone
# Experimental: The effect of compound MyoMed-946 on MuRF1 protein stability was determined in vitro by differential scanning fluorimetry (DSF).
# “MuRF1 central fragment” was expressed as previously described (Mrosek M et al., FASEB J, 2007, 21, 1383-1392) and used in DSF experiments at 75 μM final concentration. Compound MyoMed-946 was diluted from a 10 mM stock in DMSO to 100 μM in PBS as DSF assay buffer, resulting in a final concentration of 1% DMSO. After 1 hour pre-incubation at room temperature, the aqueous protein solutions were soaked into capillaries and placed into a Prometheus NT.48 nanoDSF device (NanoTemper Technologies, Munich, Germany). Changes in the intrinsic tryptophan or tyrosine fluorescence that occurred after LED laser excitement upon protein unfolding in a thermal gradient was detected at 330 nm and 350 nm, respectively. […] The first derivative of the fluorescence wavelength ratio of 350/330 nm upon thermal protein unfolding was used to calculate transition midpoint (Tm) of single and multiple transition states.
# Murine C2C12 myoblasts = test: Cytotoxicity, LDH release in cultured myoblasts; assay type: cell-based; settings: increasing concentrations, 24 h
# Experimental: (§1) Murine C2C12 myoblasts (CRL-1772, ATCC) were cultured in DMEM (Lonza; Basel, Switzerland) supplemented with 10% fetal calf serum (FCS; Gibco®Invitrogen, Carlsbad, CA). For induction of differentiation into myotubes, subconfluent cultures were switched to DMEM containing 2% horse serum (Sigma-Aldrich; Seelze, Germany). Myotubes were subsequently pre-treated for 2 h with increasing compound concentrations (0.1 to 10 μmol/L, dissolved in DMSO) or with an equal volume of DMSO before treatment for 24 h with 10 μmol/L dexamethasone (DEX; Sigma-Aldrich; Seelze, Germany). Myotube diameter was then evaluated by image analysis software (Analysis 3.0, Olympus Soft Imaging Solutions GmbH, Munster, Germany). To determine cytotoxicity of selected compounds, myoblasts or myotubes were incubated with increasing concentrations for 24 h. Subsequently, the concentration of lactate dehydrogenase (LDH) activity was quantified in the cell culture supernatant as a measure for cell destruction as described in Bellocci et al., Anal Biochem, 2008, 374, 48-55.
# [1] = tested on: C2C12 myotubes (myocytes); test: Cytotoxicity, LDH release in cultured myotubes (myocytes); assay type: cell-based, Murine; settings: increasing concentrations, 24 h
# Experimental: as §1
# [2] = tested on: C57BL/6N mice inoculated with B16F10 melanoma cells; test: Tumor mouse model (B16F10 melanoma); assay type: in vivo; settings: 0.1 weight-% in chow, vs tumor mice
# Excerpt: 8 weeks old female C57BL/6N mice were inoculated with B16F10 melanoma cells (9×10^5 cells) or saline (sham, n=10). Within the first 3 days after tumor inoculation, the B16F10 mice as well as the sham mice received regular chow. Then the B16F10 mice were randomly divided in three groups, where the first group received MyoMed-946 chow (Tumor+MyoMed-946, n=10), the second group received MyoMed-205 chow (Tumor+MyoMed-205, n=10) and the third group received an identical chow but without the addition of the selected compounds (Tumor, n=10). The compound concentration in the chow was 0.1 weight-%, resulting in a daily compound intake per mouse of about 3 mg. Also the sham group was fed with an identical chow but without the addition of the selected compound. Wire-hang tests (muscle function) were performed with each mouse 9, 16 and 23 days after tumor inoculation. For this purpose, a standard wire hang construction was used with a wire (length: of 40 cm, diameter: 2.5 mm) at a height of 70 cm above the floor. Under the center of the wire a large box with sawdust was placed. For testing, the mouse was hung to the wire with the two limbs and hang time was recorded. Each animal had three attempts for 180 sec. max each. After three attempts, the maximal holding impulse was calculated (hanging time×body weight).
# Mice were sacrificed 25 days after tumor inoculation. […]
# [3] = tested on: MuRF1, Nox 2, LC3 I/II, nitrotyrosine; test: Protein expression and nitrotyrosine in muscle tissue of B16F10 mice; assay type: in vivo; settings: tumor+compound vs tumor
# Experimental: Protein expression of MuRF1, Nox 2 and LC3 I/II in muscle tissue of B16F10 mice was determined as described above for the MCT and CHF mice. In addition, the level of the reactive oxygen species marker nitrotyrosine was determined.
# [4] = tested on: citrate synthase, succinate dehydrogenase, mitochondrial complex I, cytoplasmic enzymes; test: Enzyme activity measurements in diaphragm tissue, CHF mice; assay type: in vivo; settings: CHF+compound
# Experimental: Diaphragmatic tissue was homogenized in relaxing buffer, and aliquots were used for enzyme activity measurements. Enzyme activities for lactate dehydrogenase (EC 1.1.1.27), pyruvate kinase (EC 2.7.1.40), succinate dehydrogenase (SDH, EC 1.3.5.1), citrate synthase (CS, EC 2.3.3.1), β-hydroxyacyl-COA dehydrogenase (EC 1.1.1.35), and mitochondrial complex I were measured spectrophotometrically as previously described in detail (Mukherjee et al., J Biol Chem, 1976, 251, 2155-2160; Vanderlinde et al., Ann Clin Lab Sci, 1985, 15, 13-31; Dzeja et al., Mol Cell Biochem, 1999, 201, 33-40; Takashi et al., Biochim Biohphys Acta, 1979, 574, 258-267; Schwarzer et al., J Physiol, 2014, 592, 3767-3782). Enzyme activity data are presented as the fold change relative to sham.
# [5] = tested on: citrate synthase and mitochondrial complex I; test: Enzyme activity measurements in muscle tissue, B16F10 mice; assay type: in vivo; settings: tumor+compound vs tumor
# Experimental: The enzyme activities of citrate synthase and mitochondrial complex I in muscle tissue of B16F10 inoculated mice were determined as described above for the […] mice.
# MuRF1 E3 ligase activity, sequence (Q969Q1 whole entry): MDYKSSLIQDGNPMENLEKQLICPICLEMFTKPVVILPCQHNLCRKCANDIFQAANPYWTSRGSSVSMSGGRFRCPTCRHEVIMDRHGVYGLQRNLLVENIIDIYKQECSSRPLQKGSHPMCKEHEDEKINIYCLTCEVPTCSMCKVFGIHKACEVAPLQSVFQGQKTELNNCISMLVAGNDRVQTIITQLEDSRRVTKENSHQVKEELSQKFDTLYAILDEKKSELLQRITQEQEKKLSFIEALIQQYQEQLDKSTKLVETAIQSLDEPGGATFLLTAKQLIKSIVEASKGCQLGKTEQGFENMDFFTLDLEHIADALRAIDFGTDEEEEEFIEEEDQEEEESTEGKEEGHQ
smiles,measurement,setting,value
"Cc1cc(=O)oc2cc(OCc3ccc(C(=O)OCC(=O)NC(=O)NCc4ccco4)cc3)ccc12 [MyoMed-946, [2-(2-furylmethylcarbamoylamino)-2-oxo-ethyl] 4-[(4-methyl-2-oxo-chromen-7-yl)oxymethyl]benzoate]",inhibition of MuRF1 E3 ligase activity,MuRF1 E3 ligase activity,significantly inhibit MuRF1 E3 ligase activity
same,main Tm of MuRF1 central fragment,MuRF1 central fragment,52.5 °C
same,toxicity (LDH release),Murine C2C12 myoblasts,low toxicity
same,toxicity (LDH release),[1],low toxicity
same,tumor induced skeletal muscle atrophy (TA muscle weight),"[2]; 25 days after inoculation, at least to certain extent",attenuated
same,loss of muscle function in wire-hang test,"[2]; 9, 16 and 23 days after inoculation",attenuated; also recorded: significantly attenuates the loss of muscle function
same,downregulation of expression levels of LC3 I/II,[3],attenuated; also recorded: not observed
same,expression of Nox 2,[3],attenuated; also recorded: significantly reduced
same,tissue level of nitrotyrosine,[3],attenuated; also recorded: significantly reduced
same,up-regulation of MuRF1 expression,[3],attenuated; also recorded: prevented
same,citrate synthase enzyme activity,[4]; reduced by 21% in CHF vs sham,attenuated; also recorded: partially improved
same,mitochondrial complex I enzyme activity,[4]; reduced by 27% in CHF vs sham,attenuated; also recorded: partially improved
same,succinate dehydrogenase enzyme activity,[4]; reduced by 28% in CHF vs sham,attenuated; also recorded: partially improved
same,citrate synthase enzyme activity,[5],attenuated; also recorded: partially or complete restores

# — patent US12331042B2, “Compounds suitable for the treatment and prophylaxis of muscle wasting and other conditions” (priority 2019, dated 2025)
